What was measured:
Assay in all cases: microbe, parasite or virus in culture
Type in all cases: cell-based
[1] = tested on: clinically isolated HIV strain B-2-001; conditions: Human immunodeficiency virus 1, 72 h, read-out: EC50, Virus Strains B-2-001
Description: (§1) The compounds were tested in a cellular assay using the MT4-LTR-EGFP cells for anti-viral activity. […] Because of the increasing emergence of drug resistant HIV strains, the present compounds were tested for their potency against clinically isolated HIV strains harboring several mutations. […] The viral strains A, B, C and D contain mutations as indicated below in Table 2.
(§2) The cellular assay was performed according to the following procedure. HIV- or mock-infected MT4-LTR-EGFP cells were incubated for three days in the presence of various concentrations of the compounds according to the invention. Upon infection, the viral tat protein activates the GFP reporter. At the end of the incubation period, the GFP signal was measured. […] The inhibitory activity of the compound was monitored on the virus-infected cells and was expressed as EC50. These values represent the amount of the compound required to protect 50% of the cells from virus infection.

[2] = tested on: clinically isolated HIV strain A-2-001; conditions: Human immunodeficiency virus 1, 72 h, read-out: EC50, Virus Strains A-2-001
Description: as §1, §2

[3] = tested on: clinically isolated HIV strain D-2-001; conditions: Human immunodeficiency virus 1, 72 h, read-out: EC50, Virus Strains D-2-001
Description: as §1, §2

[4] = tested on: wild type laboratory HIV strain (WT IIIB-2-001); conditions: Human immunodeficiency virus 1, IIIB, 72 h, read-out: EC50, Virus Strains WT IIIB-2-001
Description: as §1, §2

[5] = tested on: clinically isolated HIV strain C-2-001; conditions: Human immunodeficiency virus 1, 72 h, read-out: EC50, Virus Strains C-2-001
Description: as §1, §2

| Compound | EC50 [1] [nM] | EC50 [2] [nM] | EC50 [3] [nM] | EC50 [4] [nM] | EC50 [5] [nM] |
| --- | --- | --- | --- | --- | --- |
| CC(C)CN(CC(O)C(Cc1ccccc1)NC(=O)OC1COC2OCCC12)S(=O)(=O)c1ccc(N)c(NCc2ccc(F)cc2F)c1 (stereo not shown) [Compound 78, (3-{[4-amino-3-(2,4-difluoro-benzylamino)-benzenesulfonyl]-isobutyl-amino}-1-benzyl-2-hydroxy-propyl)-carbamic acid hexahydro-furo[2,3-b]furan-3-yl ester] | 135 | 0.617 | 35.5 | 3.63 | 10 |
| CC(C)CN(C[C@@H](O)[C@H](Cc1ccccc1)NC(=O)O[C@H]1CO[C@H]2OCC[C@H]21)S(=O)(=O)c1ccc(N)c(NCc2ccccn2)c1 [Compound 80, [3-({4-amino-3-[(pyridin-2-ylmethyl)-amino]-benzenesulfonyl}-isobutyl-amino)-1-benzyl-2-hydroxy-propyl]-carbamic acid hexahydro-furo[2,3-b]furan-3-yl ester] | 93.3 | 1.48 | 38.9 | 8.91 | 14.5 |
